In patent US9687480B2, “Chiral 1-(4-methylphenylmethyl)-5-oxo-{N-[(3-t-butoxycarbonyl-aminomethyl)]-piperidin-1-yl)-pyrrolidine as inhibitors of collagen induced platelet activation and adhesion” (Council of Scientific & Industrial Research, priority 2011, dated 2017):
Read-outs that look alike come from different tables or passages of the source.

How the values were obtained:
[1] = tested on: human platelet rich plasma (collagen induced aggregation); assay: Collagen induced platelet aggregation, human platelet rich plasma (in vitro); type: cell-based; conditions: for IC50: human PRP, collagen 2 μg/ml, read-out: Collagen induced platelet aggregation studies (Human) IC50; for activity against collagen induced aggregation: in vitro, human platelet rich plasma
Method: (§1) The reaction was allowed to proceed for at least 5 min, and the extent of aggregation was expressed in light-transmission units (Ivandic B T, Schlick P, Starltz P, Kurz K, Katas H A, Giannitsis E. Determination of clopidogrel resistance by whole blood platelet aggregometry and inhibitors of the P2Y12 receptor. Clinical Chemistry 2006: 52:383-88).
(§2) The percentage of aggregation was calculated by using following formula: Percent Aggregation=A/B×100 Where, A is the number of division traversed by the label on chart in the presence of Inducer & B is the total number of divisions (80). Platelet Aggregation Studies (FIG. 3) a) Platelet Aggregation (Human, In Vitro) (FIG. 3a (i) (ii) (iii))

mice [2] = assay: Collagen-epinephrine induced pulmonary thromboembolism in mice; type: in vivo; conditions: Table 2 summary; how long protection lasts
Excerpt: To assess the antithrombotic efficacy of Compounds, mice were divided into vehicle, aspirin and Compounds treated groups, and each group included ten animals. […] Results have been reported as percentage protection, which represents protection against collagen and epinephrine induced thrombosis and expressed as: Percent Protection=(1-([…]-number of animals paralyzed/dead in test compound-treated group; Pcontrol-number of animals paralyzed/dead in vehicle treated group. Collagen Epinephrine Induced Pulmonary Thromboembolism (FIG. 1): […]

[3] = tested on: human platelet rich plasma (TRAP induced aggregation); assay: TRAP (SFLLRN) induced platelet aggregation, human platelet rich plasma (in vitro); type: cell-based; conditions: for IC50: human PRP, 25 μM TRAP, read-out: TRAP induced platelet aggregation studies (Human) IC50; for effect on TRAP induced platelet aggregation: up to 300 μM
Method: as §1, §2

[4] = tested on: hamster whole blood (Collagen 2.5 μg/ml); assay: Whole blood aggregation in hyperlipidemic hamsters (ex vivo), collagen induced; conditions: Table 2 summary
rats = assay: Arterio-venous shunt model in rats; type: in vivo; conditions: for Arterio-venous shunt model in rat: Table 2 summary; for thrombus weight: rats, given 1 hr prior to shunt
Excerpt: Rats were grouped into control, aspirin and test compound group, each group having six animals. Rats were anesthetized with urethane (1.25 g/kg). Cervical incision was made and carotid artery and its contra lateral jugular vein was exposed to prepare a shunt by using polyethylene tubes. Two 7 cm siliconized polyethylene tubes (0.5/1.0 mm inner/outer diameter) were linked to a central 6 cm silicon tube (1.0/1.5 mm, inner/outer diameter) containing a 5 cm silk thread (pre-weighed) and were filled with saline. The shunt assembly was cannulated between the jugular vein and contra-lateral carotid artery and blood was allowed to circulate through the shunt. Blood flow through the shunt was maintained for 10 minutes, subsequently the central part of the shunt was removed and silk thread having thrombus deposit was taken out and weighed. The thrombus adhered/deposited on thread was calculated by subtracting the wet weight of the silk thread. The standard drugs and test compounds were given 1 hr prior to the establishment of arterio-venous shunt (Tohti I, Tursun M, Umar A, Turdi S, Imin H, Moore N. Aqueous extracts of Ocimum basilicum L. (sweet basil) decrease platelet aggregation induced by ADP and thrombin in vitro and rats arterio-venous shunt thrombosis in vivo. Thrombosis Res. 2006; 118: 733-739).

mice [5] = assay: Tail bleeding time in mice; type: in vivo; conditions: for Bleeding Time in mice: Table 2 summary; for prolongation in bleeding time: 30 μM/kg, 1 hr p.o. dosing
Method: Bleeding time in mice was evaluated by the method of Dejana et al, (Dejana E, Callioni A, Quintana A, Gaetano G. Bleeding time in laboratory animals. II—A comparison of different assay conditions in rats. […] The time elapsed from the tip incision to the stoppage of bleeding was determined as the bleeding time. The preferred compounds, aspirin (30 mg/kg) or vehicle was given orally 60 min prior to the tail incision in a group of 5 mice each.

hamster platelets = assay: Platelet adhesion on collagen coated surface (hyperlipidemic hamster model, ex vivo); type: in vivo, hamsters; conditions: for Platelet adhesion hyperlipidemic hamsters: Table 2 summary; for platelet adhesion over collagen coated surface: hyperlipidemic hamsters, ex vivo
Method: Platelet adhesion to collagen was measured in polystyrene 96-well micro titer plates. Micro titer plates were coated with insoluble equine tendon native fibrillar type I collagen (Chrono-Log Corp. Havertown, USA), 2 μg/well in 5 mM acetic acid (Tandon N N, Ockenhouse C F, Greco […]. Adhesive functions of platelet lacking GPIV (CD36). Blood 1991; 78: 2809-13) overnight at 4° C. The unoccupied protein binding sites on the wells were blocked with 0.5% BSA in Tyrode's-HEPES buffer (136.7 mM NaCl, 13.8 mM NaHCO3. 0.36 mM NaH2PO4.H2O, 2.6 mM KCl, 1.0 mM MgCl2.6H2O, 5.5 mM glucose, pH 7.4) at room temperature for 1 hour, and then rinsed once with PBS. Washed platelets were suspended in the Tyrode's-HEPES buffer and added to the wells (2×10^7 cells/well) for 1 h at room temperature. After three washes with PBS, the number of adherent platelets was evaluated colorimetrically (Bellavite P., Andrioli G., Gizzo P., Arigliano P., Chirumbolo […] colorimetric method for the measurement of platelet adhesion in microtiter plates. Anal. Blochem. 1994; 216:444-450). Briefly, 150 μl of a 0.1 M citrate buffer (pH 5.4), containing 5 mM p-nitrophenyl phosphate and 0.1% TritonX-100 was added to the wells after washing. After incubation for 30 minutes at 25° C. in the absence of ambient light, colour was developed by the addition of 100 μl of 2N NaOH and the absorbance at 405 nm was read using a microplate reader (Powerware XS, Biotek, USA).

human α-thrombin = molecular target: T1, human α-thrombin (Homo sapiens, UniProt P00734); assay: Amidolytic assay of thrombin activity (fluorogenic substrate); type: biochemical; conditions: compound 1 at 300 μM and 1 mM after 15 min of substrate incubation
T1 construct: amidolytic activity of human α-thrombin using fluorogenic substrate

hyperlipidemic hamsters = assay: FeCl3 induced thrombosis in hyperlipidemic hamsters; type: in vivo; conditions: for time to occlusion (TTO): HCHF fed hamsters
Method: HCHF treated hamsters were anesthetized by urethane (1.25 g/kg, i.p.). The carotid artery was carefully dissected and a pulsed Doppler Probe (DBF-120A-CPx, CBI-8000, Crystal Biotech. USA) was placed around it to record the blood flow velocity and potency of the blood vessels. The carotid artery thrombosis was induced by FeCl3 as follows: a square (1×1 mm) of Whatman Chromatography paper was immersed in 30% FeCl3 solution for 5 min and placed on the carotid artery as described earlier (Kurz K D, Main B W, Sandusky G E. Rat model of arterial thrombosis induced by ferric chloride. Thromb Res 1990; 60(4):269-80). Thrombosis was monitored as the reduction in carotid artery blood flow. The time at which the blood-flow velocity was decreased to zero was recorded as the total of occlusion of the vessel.

[6] = tested on: human platelet rich plasma (Ristocetin, GP 1b specific agonist); assay: Ristocetin induced platelet aggregation, human platelet rich plasma (in vitro); type: cell-based; conditions: 1.5 mg/ml Ristocetin
Method: as §1, §2

Row | Compound | IC50 [1] [µM] | Collagen-epinephrine induced thrombosis in mice (duration of effect) (mice [2]) | IC50 [3] [µM] | Whole blood aggregation in hyperlipidemic hamsters [4] | Arterio-venous shunt model in rat (rats) | Bleeding Time in mice (mice [5]) [fold] | Platelet adhesion hyperlipidemic hamsters (hamster platelets) | activity against collagen induced aggregation [1] | thrombin amidolytic activity (human α-thrombin) | inhibition of TRAP induced platelet aggregation ([3]; at 100 μM) | prolongation in bleeding time (mice [5]) | time to occlusion (TTO) (hyperlipidemic hamsters) | platelet adhesion over collagen coated surface (hamster platelets) | IC50 ([1]; Platelet) [µM] | IC50 ([3]; Platelet) [µM] | effect on TRAP induced platelet aggregation [3] | thrombus weight (rats) | Ferric chloride induced thrombosis in hyperlipidemic hamsters (hyperlipidemic hamsters; Table 2 summary) | inhibition of Ristocetin induced platelet aggregation [6]
1 | 1-(4-methylphenylmethyl)-5-oxo-{N-[(3-t-butoxycarbonyl-aminomethyl)]-piperidin-1-yl}-pyrrolidine-2-carboxamides [Compound 1] | ~10 | Up to 18 hrs | > 100 | Effective | Protective | 2 | Effective | – | – | – | – | – | – | – | – | – | – | – | –
2 | Cc1ccc(CN2C(=O)CC[C@H]2C(=O)N2CCCC(CNC(=O)OC(C)(C)C)C2)cc1 (some centres unmarked) [Compound 1, 1-(4-methylphenylmethyl)-5-oxo-{N-[(3-t-butoxycarbonyl-aminomethyl)]-piperidin-1-yl}-pyrrolidine-2-carboxamides] | – | – | – | – | – | – | – | active | significant inhibitory effect | significant inhibition | approximately 1.5 fold | remained ineffective | significant reduction | – | – | – | – | – | –
3 | Cc1ccc(CN2C(=O)CC[C@H]2C(=O)N2CCC[C@@H](CNC(=O)OC(C)(C)C)C2)cc1 [Compound 6] | – | >24 h | – | Effective | Protective | 1.5 | Effective | active | remained ineffective | – | approximately 1.5 fold | significantly increased | significant inhibition | ~10 | > 500 | did not exhibit any effect | reducing the thrombus weight significantly | Protective | not to exhibit any effect
4 | Cc1ccc(CN2C(=O)CC[C@H]2C(=O)N2CCC[C@H](CNC(=O)OC(C)(C)C)C2)cc1 [Compound 7, (2S)-1-(4-methylphenylmethyl)-5-oxo-(3R)-{N-[(3-t-butoxycarbonyl-aminomethyl)]-piperidin-1-yl}-pyrrolidine-2-carboxamide] | – | <12 h | – | No effect | Protective | 1.5 | No effect | active | actively attenuated | – | approximately 1.5 fold | remained ineffective | no effect | > 10 | > 500 | did not exhibit any effect | reducing the thrombus weight significantly | – | not to exhibit any effect
